Laboratory results from patent US5851537A (priority 1997, dated 1998).
In brackets after ≈: the same amount, converted by molar mass.

Columns and labels:
[1] = system: psoriasis and various cutaneous malignancies; conditions: cited from earlier work
[2] = system: cultured normal keratinocytes; conditions: in vitro; cited from earlier work
actinic keratoses (AKs) = assay: phase IIb study, number of actinic keratoses; format: in vivo, human; conditions: 10% (w/w) topical, six months, compared to placebo
Description: (§1) Forty-eight participants with severe actinic keratoses (AKs) on their forearms (i.e. at least ten well circumscribed lesions nonlateral, sun-exposed surfaces) completed a one month run-in on placebo ointment applied twice daily to the affected areas. […] After six months of treatment, all measurements were repeated. […] The study was described at the thirty-second annual meeting of the American Society of Clinical Oncology on May 18-21, 1996.

[3] = oral, humans; cited from earlier work
[4] = phase IIb study, α-DFMO in skin and blood
Description: as §1

UVB induced skin cancer = conditions: cited from earlier work
skin ODC = conditions: five of seven subjects, 6 hours after oral dosing, 0.5 g/m^2; cited from earlier work
[5] = in vivo
Description: as §1

BALB/c mice = assay: four week topical toxicity study in mice; format: in vivo
Description: Adult female BALB/c mice, 25-31 gm. weight, were obtained from Jackson Laboratories, Bar Harbor, Me. For toxicology tests, the mice were housed 5/cage and received standard lab chow and tap water ad libitum. A 12-hour light/dark cycle in a humidified atmosphere was utilized. Toxicology Study A cohort of 20 mice were de-haired over a 2 cm^2 dorsal area using the topical depilatory agent, Nair® Lotion (Carter Wallace, Inc., New York, N.Y.). […] The daily dose was delivered by a positive displacement pipette (Micro-Man®, Gilson Scientific, Woburn, Mass.).
Using the murine total body surface area conversion nomogram of Freireich et al., the daily doses for the 3 cream concentrations of 1%, 5% and 10% were 71.4 mg/m^2, 357 mg/m^2, 714 mg/m^2. For the total four week period, the cumulative doses were 1.43 g/m^2, 7.14 g/m^2 and 14.28 g/m^2. […] The skin application sites were observed daily for evidence of any local toxicity (erythema, induration or ulceration) and the animals were weighed weekly. At the end of the four week treatment period, the mice were sacrificed by rapid cervical dislocation and blood samples were obtained for quantifying renal function (BUN, creatinine), hepatic function (SGOT-SGPT, bilirubin), electrolytes (Na^+ K^+ Cl^-, ^- HCO3^-), hematologic indices (WBC with differential, RBC, platelets) and glucose (Animal Diagnostic Laboratories,Tucson, Ariz.).

mouse skin [6] = assay: in vitro transdermal penetration, mouse skin (diffusion cells); format: in vitro ADME, BALB/c mice
human skin [7] = assay: in vitro transdermal penetration, human skin (diffusion cells); conditions: 24 hours, 37° C., 10% α-DFMO
total polyamines = assay: phase IIb study, total polyamines; format: in vivo, human; conditions: 10% (w/w) topical, six months, compared to placebo
Description: as §1

psoriatic lesions = conditions: cited from earlier work
human skin [8] = assay: in vitro
Procedure: (§2) These were minced by scissors and then sonicated for 30 seconds in 100 μL of (0.4 m) HClO4 containing 10 mM internal standard GABA. To this mixture, 100 μL of water was added and the contents were then centrifuged at 10,000×G for 3 min. A 10 μL aliquot of supernatant was added to 40 μL of sodium tetraborate solution (pH 9.3) and mixed with […] the derivatizing agent 6-aminoquinolyi-N-hydroxysuccinimidyl carbamate. This mixture was then heated for 10 min. at 50° C. and a 20 μL aliquot was injected into the HPLC.

mouse skin [9] = assay: α-DFMO content of mouse skin samples; conditions: 10% α-DFMO in Vanicream, 37° C.
Procedure: as §2

in vitro = conditions: skin, topical or ocular
Procedure: as §2

human skin [10] = system: human skin
[11] = oral, single 0.5 g/m^2 dose given daily, cited from earlier work
[12] = solubility limit in the vehicle; format: physicochemical; conditions: in the particular vehicle used
Description: Having thus described the invention, it will be apparent to those of skill in the art that modifications can be made within the scope of the invention. […] Also, the vehicle cannot contain absorption enhancers.

mouse epidermis = conditions: five percent solution, in vitro; cited from earlier work
[13] = chemical stability of α-DFMO in cream, HPLC; format: physicochemical; conditions: Vanicream, 4° C., six month time point; 262800 min
Procedure: The reverse phase (C-18 column, Alitech Associates, 150 mm×4.6 mm, […]) assay was performed with a 30 minute gradient elution using two mobile phases (A and B) containing aqueous buffer and acetonitrile, respectively. Mobile phase A contained 100 mM sodium acetate, 15 mM triethylamine, and […] sodium EDTA dissolved in water at pH 5.0. Mobile phase B was acetonitrile UV® (Burdick & Jackson, Muskegon, Mich.). The starting proportion, A:B, was 92:8, at 18 min. it was 80:20; at 19-21 min. 40:60; and at 22-30 min. 92:8 [21]. The mobile phase was pumped at 1.2 mL/min. using a Perkin Elmer Biocompatible Binary Pump, a Hitachi AS-2000 Autosampler and a Hewlett Packard Series 1050 Solvent Programmer.
For the stability assays, the 10% cream formulation was stored at 4° C. for up to 6 months and 10 μL aliquots were removed weekly and analyzed by HPLC after extraction using 1 mL distilled water.

ornithine decarboxylase = conditions: time and concentration dependence, reversibility; cited from earlier work
[14] = ten percent cream with absorption enhancer, ten patients

CC(/C=N/NC(=N)N)=N\NC(=N)N [MGBG, mitoguazone]
skin irritation ([1]; in vivo): highly irritating | therapeutic effects in psoriasis and various cutaneous malignancies ([1]; topically or intralesionally): produces therapeutic effects | proliferation of cultured normal keratinocytes [2]: decrease the proliferation

NCCC[C@](N)(C(=O)O)C(F)F [α-DFMO, alpha-difluoromethylornithine]
reduction in the number of AKs (actinic keratoses (AKs)): 21% | ototoxicity [3]: associated with ototoxicity | α-DFMO in blood ([4]; 10% (w/w) topical, six months): not detected in blood | systemic uptake ([4]; in vivo): no systemic uptake | treated forearms with high DFMO skin levels ([4]; in vivo): thirteen | body weight loss (UVB induced skin cancer; 1% drinking water solution): 16% | hyperactivity (UVB induced skin cancer; 1% drinking water solution): sound-induced hyperactivity | UVB induced skin cancer incidence (UVB induced skin cancer; 1% solution in drinking water, reduced from 38%): 9% | UVB-induced immunosuppression (UVB induced skin cancer; oral α-DFMO regimen, 1% in drinking water): prevented UVB-induced immunosuppression | reduction in skin ODC levels (skin ODC): ≥ 50% | participants with moderately severe skin rash [5]: one | participants with skin rash in the area of DFMO application [5]: Four | systemic toxicities [5]: no systemic toxicities | drug related alterations in weight gain (BALB/c mice; mouse, in vivo): without drug related alterations in weight gain | hair regrowth (BALB/c mice; mouse, in vivo): proceeded normally | local skin irritation (BALB/c mice; mouse, in vivo): no evidence of local skin irritation | serum enzymes, electrolytes or hematologic parameters (BALB/c mice; mouse, in vivo): no alterations | survival (BALB/c mice; topical 1%, 5% or 10% cream, through the study period): survived through the study period | toxicity in mice (summary) (BALB/c mice; topical formulation): nontoxic in mice | uptake into and penetration through mouse skin (mouse skin [6]): significant α-DFMO uptake into and penetration through mouse skin | degree of transdermal penetration versus azone-containing formulation (mouse skin [6]; 10% α-DFMO in Vanicream, mice, vs 5% α-DFMO with azone): substantially less | calculated penetration rate (mouse skin [6]; mouse skin, 10% α-DFMO formulation in Vanicream): 3.6 μg/cm^2 /hour | mean percent uptake (transdermal penetration) (mouse skin [6]; mouse skin, 37° C., 24 hours, 10% α-DFMO): 61.53 % of the applied dose | time of maximal transdermal penetration (mouse skin [6]; mouse skin, 37° C., Vanicream): 24 h | time of maximal penetration (mouse skin [6]; mouse skin, hydrophilic ointment U.S.P., 37° C.): 12 h | degree of penetration (human skin [7]): 0.7 % of the applied concentration | suppression of total polyamines (total polyamines): 21% | systemic uptake (psoriatic lesions; human, in vivo): systemic uptake in the patients | improvement in psoriatic lesions (psoriatic lesions; [14]): marginal improvement | reduction of cutaneous spermine levels (psoriatic lesions; [14]): sixty-six | intradermal levels (human skin [8]): substantial intradermal levels | time of peak uptake into human skin (human skin [8]): 24 h | concentration (human skin [8]; human, skin, topical or ocular): 1360 µM | time of peak uptake into mouse skin (mouse skin [9]): 4 h | concentration at 24 h (in vitro; human): 323000 ng/g | concentration at 4 h (in vitro; mouse): 7.25e+06 ng/g | time until transdermal human skin penetration apparent (human skin [10]): > 20 h | plasma concentration×time product [11]: 311 μm×hr | terminal phase half life [11]: 3.5 h | Cmax ([11]; read-out: peak α-DFMO plasma concentrations): 47.1 µM | solubility [12]: ~220 mg/mL (≈ 1210 mM) | putrescine levels (mouse epidermis): twenty-five | spermine and spermidine levels (mouse epidermis): not affected | synthesis of DNA (mouse epidermis): blocks the synthesis of DNA | loss of α-DFMO [13]: < 1% | inhibition of ornithine decarboxylase (ornithine decarboxylase): time and concentration dependent but is irreversible
